Test results reported in ChEMBL document CHEMBL1909046, “DrugMatrix in vitro pharmacology data”.

Legend:
[1] = biological target: Kappa-type opioid receptor (Homo sapiens, UniProt P41145); assay: DRUGMATRIX: Opiate kappa (OP2, KOP) radioligand binding (ligand: [3H] Diprenorphine); format: cell membranes, HEK293, Membrane; settings: Not Active = under 50% inhibition at 10 µM
Cytochrome P450 3A4 = Cytochrome P450 3A4 (Homo sapiens, UniProt P08684); settings: bti-tn-5b1-4; note: in other assays of this panel Not Active means under 50% inhibition at 10 µM
[2] = DRUGMATRIX: Imidazoline I2, Central radioligand binding (ligand: [3H] Idazoxan); format: cell membranes, Rattus norvegicus, Wistar, Cerebral cortex, Membrane; settings: Not Active = under 50% inhibition at 10 µM
D(3) dopamine receptor = D(3) dopamine receptor (Homo sapiens, UniProt P35462); assay: DRUGMATRIX: Dopamine D3 radioligand binding (ligand: [3H] Spiperone); format: cell membranes, CHO, Membrane
[3] = biological target: C-C chemokine receptor type 2 (Homo sapiens, UniProt P41597); format: cell membranes, Membrane; settings: cho-k1; note: in other assays of this panel Not Active means under 50% inhibition at 10 µM
[4] = DRUGMATRIX: GABAA, Chloride Channel, TBOB radioligand binding (ligand: [3H] TBOB); format: cell membranes, Rattus norvegicus, Wistar, Cerebral cortex, Membrane; settings: Not Active = under 50% inhibition at 10 µM

Chain of D(3) dopamine receptor (P35462 whole entry): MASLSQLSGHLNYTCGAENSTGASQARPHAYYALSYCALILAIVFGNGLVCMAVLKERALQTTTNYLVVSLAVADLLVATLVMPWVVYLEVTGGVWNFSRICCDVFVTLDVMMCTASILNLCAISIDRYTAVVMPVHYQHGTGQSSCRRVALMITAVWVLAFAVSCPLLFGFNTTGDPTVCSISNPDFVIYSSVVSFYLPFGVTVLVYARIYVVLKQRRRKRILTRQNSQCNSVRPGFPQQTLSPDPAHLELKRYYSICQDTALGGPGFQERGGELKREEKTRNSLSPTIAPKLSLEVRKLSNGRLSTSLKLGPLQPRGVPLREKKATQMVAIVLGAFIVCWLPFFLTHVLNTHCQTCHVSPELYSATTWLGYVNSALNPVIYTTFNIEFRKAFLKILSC
Chain of C-C chemokine receptor type 2 (P41597 whole entry): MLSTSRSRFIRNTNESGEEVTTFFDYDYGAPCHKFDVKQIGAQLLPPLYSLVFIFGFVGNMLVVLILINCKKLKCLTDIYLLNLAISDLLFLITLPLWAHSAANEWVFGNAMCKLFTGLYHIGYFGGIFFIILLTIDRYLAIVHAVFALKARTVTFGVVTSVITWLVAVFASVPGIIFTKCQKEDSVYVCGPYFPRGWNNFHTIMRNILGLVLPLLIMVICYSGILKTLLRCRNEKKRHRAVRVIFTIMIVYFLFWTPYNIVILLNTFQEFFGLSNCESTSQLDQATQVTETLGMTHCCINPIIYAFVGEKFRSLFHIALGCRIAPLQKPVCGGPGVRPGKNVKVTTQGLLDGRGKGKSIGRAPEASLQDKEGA
Chain of Kappa-type opioid receptor (P41145 whole entry): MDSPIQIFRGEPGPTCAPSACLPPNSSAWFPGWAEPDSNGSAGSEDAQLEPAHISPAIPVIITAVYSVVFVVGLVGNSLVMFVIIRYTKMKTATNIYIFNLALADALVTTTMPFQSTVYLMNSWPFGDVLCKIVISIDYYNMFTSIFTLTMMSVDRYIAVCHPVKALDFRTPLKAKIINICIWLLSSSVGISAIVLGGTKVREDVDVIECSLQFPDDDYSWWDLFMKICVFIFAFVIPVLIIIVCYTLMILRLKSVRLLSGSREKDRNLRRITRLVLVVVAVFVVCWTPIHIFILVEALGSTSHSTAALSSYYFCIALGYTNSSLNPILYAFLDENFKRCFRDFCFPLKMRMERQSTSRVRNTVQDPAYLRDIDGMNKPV
Chain of Cytochrome P450 3A4 (P08684 whole entry): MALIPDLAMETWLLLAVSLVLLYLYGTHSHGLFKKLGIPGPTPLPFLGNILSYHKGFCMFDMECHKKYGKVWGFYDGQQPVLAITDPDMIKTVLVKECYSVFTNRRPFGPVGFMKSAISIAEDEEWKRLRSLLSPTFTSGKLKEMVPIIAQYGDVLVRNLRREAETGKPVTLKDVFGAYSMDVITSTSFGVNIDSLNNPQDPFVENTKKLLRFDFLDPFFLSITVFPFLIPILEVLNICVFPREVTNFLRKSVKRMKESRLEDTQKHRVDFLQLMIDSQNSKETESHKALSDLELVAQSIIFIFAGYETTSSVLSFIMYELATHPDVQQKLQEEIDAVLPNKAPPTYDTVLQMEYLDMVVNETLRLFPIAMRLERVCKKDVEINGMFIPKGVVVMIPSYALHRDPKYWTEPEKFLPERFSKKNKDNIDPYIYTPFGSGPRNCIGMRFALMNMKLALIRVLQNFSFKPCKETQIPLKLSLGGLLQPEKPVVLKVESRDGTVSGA

| SMILES | IC50 ([1]; hek293) | IC50 (Cytochrome P450 3A4) | Ki (Cytochrome P450 3A4) | IC50 [2] | Ki [2] | IC50 (D(3) dopamine receptor; cho) | IC50 [3] | IC50 [4] | Ki [4] | IC50 ([2]; read-out: IC50) | Ki ([2]; read-out: Ki) | Ki [1] | IC50 ([1]; read-out: IC50) | IC50 (D(3) dopamine receptor; read-out: IC50) | Ki (D(3) dopamine receptor; read-out: Ki) |
| --- | --- | --- | --- | --- | --- | --- | --- | --- | --- | --- | --- | --- | --- | --- | --- |
| O=C1O[C@H]([C@@H](O)CO)C(O)=C1O [ASCORBIC ACID] | Not Active | Not Active | Not Active | Not Active | Not Active | Not Active | Not Active | Not Active | Not Active |  |  |  |  |  |  |
| CC(C(=O)O)c1ccc2oc(-c3ccc(Cl)cc3)nc2c1 (stereo not drawn) [BENOXAPROFEN] | Not Active | Not Active | Not Active | Not Active | Not Active | Not Active | Not Active | Not Active | Not Active |  |  |  |  |  |  |
| COc1ccc2cc3[n+](cc2c1OC)CCc1cc2c(cc1-3)OCO2.[Cl-] [BERBERINE CHLORIDE] | Not Active | Not Active | Not Active |  |  | Not Active | Not Active | Not Active | Not Active | 1280 nM | 852 nM |  |  |  |  |
| O=C(O)CCNC(=O)c1ccccc1 [BETAMIPRON] | Not Active | Not Active | Not Active | Not Active | Not Active | Not Active | Not Active | Not Active | Not Active |  |  |  |  |  |  |
| CC(=O)Oc1ccc(C(c2ccc(OC(C)=O)cc2)c2ccccn2)cc1 [BISACODYL] |  | Not Active | Not Active | Not Active | Not Active | Not Active | Not Active | Not Active | Not Active |  |  | 975 nM | 2440 nM |  |  |
| Cc1cc2c(OCC(CNC(C)(C)C)OC(=O)c3ccccc3)cccc2[nH]1 (stereo not drawn) [BOPINDOLOL] | Not Active | Not Active | Not Active | Not Active | Not Active | Not Active | Not Active | Not Active | Not Active |  |  |  |  |  |  |
| Brc1c(NC2=NCCN2)ccc2nccnc12 [BRIMONIDINE] | Not Active | Not Active | Not Active |  |  | Not Active | Not Active | Not Active | Not Active | 74 nM | 49 nM |  |  |  |  |
| CN(C)[C@@H]1C(O)=C(C(N)=O)C(=O)[C@@]2(O)C(O)=C3C(=O)c4c(O)ccc(Cl)c4[C@@](C)(O)[C@H]3C[C@@H]12 [CHLORTETRACYCLINE] | Not Active | Not Active | Not Active | Not Active | Not Active | Not Active | Not Active | Not Active | Not Active |  |  |  |  |  |  |
| CCC(=O)O[C@]1(C(=O)CCl)[C@@H](C)C[C@H]2[C@@H]3CCC4=CC(=O)C=C[C@]4(C)[C@@]3(F)[C@@H](O)C[C@@]21C [CLOBETASOL PROPIONATE] | Not Active | Not Active | Not Active | Not Active | Not Active | Not Active | Not Active | Not Active | Not Active |  |  |  |  |  |  |
| O=C1CN=C(c2ccccc2Cl)c2cc([N+](=O)[O-])ccc2N1 [CLONAZEPAM] | Not Active | Not Active | Not Active | Not Active | Not Active | Not Active | Not Active | Not Active | Not Active |  |  |  |  |  |  |
| Nc1ccn([C@@H]2O[C@H](CO)[C@@H](O)[C@@H]2O)c(=O)n1 [CYTARABINE] | Not Active | Not Active | Not Active | Not Active | Not Active | Not Active | Not Active | Not Active | Not Active |  |  |  |  |  |  |
| C[C@@H]1C[C@H]2[C@@H]3CCC4=CC(=O)C=C[C@]4(C)[C@@]3(F)[C@@H](O)C[C@]2(C)[C@H]1C(=O)CO [DESOXIMETASONE] | Not Active | Not Active | Not Active | Not Active | Not Active | Not Active | Not Active | Not Active | Not Active |  |  |  |  |  |  |
| CN(C)CC[C@@H](c1ccc(Cl)cc1)c1ccccn1 [DEXCHLORPHENIRAMINE] | Not Active | Not Active | Not Active |  |  | Not Active | Not Active | Not Active | Not Active | 15200 nM | 10100 nM |  |  |  |  |
| C[C@@H]1CC[C@@]2(OC1)O[C@H]1[C@@H](O)[C@H]3[C@@H]4CC[C@H]5C[C@@H](O[C@@H]6O[C@H](CO)[C@H](O[C@@H]7O[C@H](CO)C(O)[C@H](O[C@@H]8OC[C@@H](O)[C@H](O)[C@H]8O)[C@H]7O[C@@H]7O[C@H](CO)[C@H](O)[C@H](O[C@@H]8O[C@H](CO)[C@@H](O)[C@H](O)[C@H]8O)[C@H]7O)[C@H](O)[C@H]6O)[C@H](O)C[C@]5(C)[C@H]4CC[C@]3(C)[C@H]1[C@@H]2C (stereo partly drawn) [DIGITONIN] | Not Active | Not Active | Not Active | Not Active | Not Active | Not Active | Not Active | Not Active | Not Active |  |  |  |  |  |  |
| OC(CCCN1CCCCC1)(c1ccccc1)c1ccccc1 [DIPHENIDOL] | Not Active | Not Active | Not Active | Not Active | Not Active |  | Not Active | Not Active | Not Active |  |  |  |  | 2310 nM | 785 nM |
| C[C@H]1O[C@@H](n2cc(F)c(=O)[nH]c2=O)[C@H](O)[C@@H]1O [DOXIFLURIDINE] | Not Active | Not Active | Not Active | Not Active | Not Active | Not Active | Not Active | Not Active | Not Active |  |  |  |  |  |  |
| Cn1c(=O)c2c(ncn2CC(O)CO)n(C)c1=O (stereo not drawn) [DYPHYLLINE] | Not Active | Not Active | Not Active | Not Active | Not Active | Not Active | Not Active | Not Active | Not Active |  |  |  |  |  |  |
| CC[C@H]1CN2CCc3cc(OC)c(OC)cc3[C@@H]2C[C@@H]1C[C@H]1NCCc2cc(OC)c(OC)cc21 [EMETINE] | Not Active | Not Active | Not Active | Not Active | Not Active | Not Active | Not Active | Not Active | Not Active |  |  |  |  |  |  |
| COC(=O)CCc1ccc(OCC(O)CNC(C)C)cc1 (stereo not drawn) [ESMOLOL] | Not Active | Not Active | Not Active | Not Active | Not Active | Not Active | Not Active | Not Active | Not Active |  |  |  |  |  |  |
| CCC1(C)CC(=O)NC1=O (stereo not drawn) [ETHOSUXIMIDE] | Not Active | Not Active | Not Active | Not Active | Not Active | Not Active | Not Active | Not Active | Not Active |  |  |  |  |  |  |
| C#C[C@]1(OC(C)=O)CC[C@H]2[C@@H]3CCC4=C[C@@H](OC(C)=O)CC[C@@H]4[C@H]3CC[C@@]21C [ETHYNODIOL DIACETATE] | Not Active | Not Active | Not Active | Not Active | Not Active | Not Active | Not Active | Not Active | Not Active |  |  |  |  |  |  |
| C=CCc1ccc(O)c(OC)c1 [EUGENOL] | Not Active | Not Active | Not Active | Not Active | Not Active | Not Active | Not Active | Not Active | Not Active |  |  |  |  |  |  |
| CC(C(=O)O)c1cccc(Oc2ccccc2)c1 (stereo not drawn) [FENOPROFEN] | Not Active | Not Active | Not Active | Not Active | Not Active | Not Active | Not Active | Not Active | Not Active |  |  |  |  |  |  |
| CC(C)(C)NC(=O)[C@H]1CC[C@H]2[C@@H]3CC[C@H]4NC(=O)C=C[C@]4(C)[C@H]3CC[C@]12C [FINASTERIDE] | Not Active | Not Active | Not Active | Not Active | Not Active | Not Active | Not Active | Not Active | Not Active |  |  |  |  |  |  |
| Nc1ccn([C@@H]2O[C@H](CO)[C@@H](O)C2(F)F)c(=O)n1 [GEMCITABINE] | Not Active | Not Active | Not Active | Not Active | Not Active | Not Active | Not Active | Not Active | Not Active |  |  |  |  |  |  |
| N=C(N)NC(=O)Cc1c(Cl)cccc1Cl [GUANFACINE] | Not Active | Not Active | Not Active |  |  | Not Active | Not Active | Not Active | Not Active | 45 nM | 30 nM |  |  |  |  |
| Oc1c(Cl)cc(Cl)c(Cl)c1Cc1c(O)c(Cl)cc(Cl)c1Cl [HEXACHLOROPHENE] | Not Active | Not Active | Not Active | Not Active | Not Active | Not Active | Not Active | Not Active | Not Active |  |  |  |  |  |  |
| NNc1nncc2ccccc12 [HYDRALAZINE] | Not Active | Not Active | Not Active | Not Active | Not Active | Not Active | Not Active | Not Active | Not Active |  |  |  |  |  |  |
| CC(C)NNC(=O)c1ccncc1 [IPRONIAZID] | Not Active | Not Active | Not Active | Not Active | Not Active | Not Active | Not Active | Not Active | Not Active |  |  |  |  |  |  |
